The nature of one series: Solubility. It is filed as physicochemical. The following applies: read-out: Löslichkeit.
Series [1] is described as follows: Viscosity of aqueous solutions. In kind it is physicochemical. The following applies: Lösungen in Wasser mit 300 mg I/ml bei 37°C. How it is done:
(§1) Die Osmolalität und Viskosität beziehen sich auf Lösungen in Wasser mit 300 mg I/ml bei 37°C.

Series [2] in a line: Osmolality of aqueous solutions. In kind it is physicochemical. The following applies: Lösungen in Wasser mit 300 mg I/ml bei 37°C. How it is done: as §1
The conditions of series [3]: bei 300 mg I/ml; commercial contrast agents; cited from earlier work.

In the case of `CC(=O)N(CCCC(O)CO)c1c(I)c(C(=O)N(C)C)c(I)c(N(CCCC(O)CO)C(C)=O)c1I` (stereo not shown) [IX, 3,5-Bis(N-(4,5-dihydroxypentyl)-acetamido)-2,4,6-triiodbenzoesäure-N,N-dimethylamid], the solubility in the series “Solubility” was above 1000 mg/mL. Besides, the Viskosität in series [1] was 6,3 cps. Besides, the Osmolalität in series [2] was determined as 500 mOsmol/kg.

For the compound `CC(=O)Nc1c(I)c(C(=O)N[C@H]2C(O)O[C@H](CO)[C@@H](O)[C@@H]2O)c(I)c(N(C)C(C)=O)c1I` (stereo partly shown) [Metrizamid], the Osmolalitäten in series [3] is on record as 485 mOsmol/kg.

As to `CNC(=O)c1c(I)c(N(CCC(O)CO)C(C)=O)c(I)c(N(CCC(O)CO)C(C)=O)c1I` (stereo not shown) [VI, 3,5-Bis(N-(3,4-dihydroxybutyl)-acetamido)-2,4,6-triiodbenzoesäure-N-methylamid], in the series “Solubility”, the solubility was above 1000 mg/mL. The Viskosität in series [1] is listed as 5,3 cps. The compound further had an Osmolalität in series [2] of 545 mOsmol/kg.

On to `CC(=O)N(CCC(O)CO)c1c(I)c(C(=O)N(C)C)c(I)c(N(CCC(O)CO)C(C)=O)c1I` (stereo not shown) [VII, 3,5-Bis(N-(3,4-dihydroxybutyl)-acetamido)-2,4,6-triiodbenzoesäure-N,N-dimethylamid], for which the solubility in the series “Solubility” was above 1000 mg/mL. For the same compound, the Viskosität in series [1] was 4,5 cps. The compound further displayed an Osmolalität in series [2] of 535 mOsmol/kg.

In the case of `CNC(=O)c1c(I)c(N(CCCC(O)CO)C(C)=O)c(I)c(N(CCCC(O)CO)C(C)=O)c1I` (stereo not shown) [VIII, 3,5-Bis(N-(4,5-dihydroxypentyl)-acetamido)-2,4,6-tri iodbenzoesäure-N-methylamid], the solubility in “Solubility” is above 1000 mg/mL. Moreover, in series [1], the Viskosität is 7,5 cps. Also, the Osmolalität in series [2] came out at 330 mOsmol/kg.

As for `CNC(=O)c1c(I)c(C(=O)NCC(O)CO)c(I)c(N(CCCC(O)CO)C(C)=O)c1I` (stereo not shown) [XIX, 5-(N-(4,5-dihydroxypentyl)-acetamido)-2,4,6-triiod-N-methyl-N'-(2,3-dihydroxypropyl)-isophthaldiamid], the solubility in the series “Solubility” is above 1000 mg/mL. The Viskosität in series [1] is recorded as 5,8 cps. In series [2], this compound gave an Osmolalität of 405 mOsmol/kg.

For `CC(=O)N(CCC(O)CO)c1c(I)c(C(=O)N(C)CCN(C)C(=O)c2c(I)c(N(CCC(O)CO)C(C)=O)c(I)c(N(CCC(O)CO)C(C)=O)c2I)c(I)c(N(CCC(O)CO)C(C)=O)c1I` (stereo not shown) [XV], the solubility in the series “Solubility” is above 1000 mg/mL. Moreover, the Viskosität in series [1] is recorded as 16,5 cps. The same compound had an Osmolalität in series [2] of 255 mOsmol/kg.

The values above are taken from EP0530343B1, “WATER SOLUBLE, NON-IONIC X-RAY CONTRASTING AGENTS AND PROCESS FOR PRODUCING THE SAME” (Dr. Franz Köhler Chemie GmbH, priority 1991, dated 1992).
